From paper PMC6657890 (PLoS ONE, 2019)

Molecular target: T1, CV-IIL (Chromobacterium violaceum, UniProt Q7NX84)
T1 construct: gene CV_1744
Type: binding

T1 sequence (Q7NX84 2-114 limits assumed): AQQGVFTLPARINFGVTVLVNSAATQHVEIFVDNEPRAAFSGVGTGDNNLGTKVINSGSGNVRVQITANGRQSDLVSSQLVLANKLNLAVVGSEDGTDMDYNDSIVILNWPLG

Row | Structure (SMILES) | Kd
1 | OC[C@H]1OC(O)[C@@H](O)[C@@H](O)[C@@H]1O (stereo partly drawn) [D-mannose] | 25.6 µM
2 | C[C@@H]1OC(O)[C@@H](O)[C@H](O)[C@@H]1O (stereo partly drawn) [L-fucose] | 8.2 µM
